Reference: patent US6375943B1, “Attractant for the mediterranean fruit fly, the method of preparation and method of use” (The United States of America as represented by the …, priority 2000, dated 2002)

Columns and labels:
[1] = system: wild Mediterranean fruit flies; assay: Wild fly response to ceralure B1 enantiomers, first experiment, Kauai coffee; settings: for Male capture compared with other treatments: 10 mg dosage; for Response of wild flies, Mean ± s.e.: 10 mg, traps serviced every two days
Mediterranean fruit fly = settings: field studies from the literature; cited from earlier work
[2] = system: Mediterranean fruit fly, Ceratitis capitata (Wiedemann); assay: Dose-response field test, Jackson traps, released sterile flies; assay type: in vivo; settings: for Male capture compared with other treatments: 1 mg, 0.1 mg and 0.01 mg dosages; for Mean male fly capture ± s.e.: 48 hours, released sterile flies
Method: Field attraction of Mediterranean fruit fly, Ceratitis capitata (Wiedemann), to stereoselectively synthesized enantiomers of the ceralure B1 isomer: The attractancy of the two newly synthesized ceralure B1 enantiomers was evaluated against laboratory and wild populations of medfly and the response to these compounds was compared to commercially available trimedlure and ceralure. Field tests using released sterile flies on the island of Hawaii or field tests against wild populations of medfly in commercial coffee plantations on the island of Kauai were carried out to compare the attractancy, dose response and initial persistence of the new molecules and a racemic (50:50) mixture of the two.
(§1) Insects: Sterilized Mediterranean fruit fly pupae were obtained from the USDA-ARS-USPBARC rearing facility in Honolulu, Hi. The flies were reared on an artificial diet (Tanaka, N., et al., J. Econ. Entomol., 62: 967-968 (1969)) under standard mass-rearing conditions and sterilized as pupae at a dose of 150 GY and two days before emergence. Flies were shipped by air to Hilo where 150 ml of pupae (both sexes) was placed in 15-gallon Rubbermaid action packers modified by screened panels on the bottoms and sides of the units. The emerged flies were given water, sugar and hydrolyzed yeast protein. Flies were 2-9 days old when tested. Wild populations of medflies were present in coffee orchards on the island of Kauai.
(§2) Bioassays: All tests were conducted using tent-shaped Jackson traps with open ends, a removable sticky insert and a ½ inch cotton wick containing the test chemical (Harris, E. J., et al., J. Econ. Entomol., 64: 62-65 (1971)). All tests were conducted using a randomized complete block design having five traps of each treatment in the block. The tests were replicated at least 5 times.
Dose-response tests: 10 mg, 1 mg, 0.1 mg and 0.01 mg doses of each compound (in 100 μl acetone) were tested on ½ inch cotton wicks in Jackson traps. Acetone was used in the control. The treatments were ceralure B1 (1S,2S,5S), ceralure B1 (Racemic), ceralure B1 (1R,2R,5R), trimedlure, ceralure and a blank control. Traps were placed in a macadamia nut orchard on the island of Hawaii near the town of Hilo. Traps were separated by every other tree in every row (approximately 15 meters between traps). Flies (approximately 6,000) were then released by slowly walking between rows while allowing the flies to escape from the opened action packer. Traps were left out for 48 hours after which the traps were collected and brought back to the lab for analysis. Both males and females were counted on the sticky inserts.
(§3) Data analysis: Both male and female medfly were counted on the sticky inserts. […] Data was subjected to analysis of variance (Proc GLM) and the Turkey's test for separation of means values. Significant differences in response were determined at the P=0.05 level. Data were not transformed prior to analysis. Statistical analysis was performed on SAS ver 6.12 (SAS Institute, Cary, N.C.) using a PC. Values presented on the tables are mean values SEM.

[3] = system: Mediterranean fruit fly, Ceratitis capitata (Wiedemann); assay: Longevity field test over three weeks, Jackson traps, released sterile flies; assay type: in vivo; settings: for Male capture compared with other treatments: 10 mg dose
Method: as §1, §2
Longevity tests: Preliminary tests to determine the effectiveness of the different chemical compounds over time were also carried out using sterile flies released in a macadamia nut orchard. In these tests all compounds were applied to the cotton wick at a 10 mg dose. 100 μl of each compound was placed on a ½ inch wick inside a Jackson trap. Traps were serviced weekly for three weeks. Inserts were changed each week and new flies were released but the same compounds were left in the field to age.
as §3

[4] = system: wild Mediterranean fruit flies; assay: Wild fly response, second experiment against standard 2 g trimedlure plug; settings: for Male capture compared with other treatments: after 48 hours, 10 mg versus 2 g trimedlure plug
[5] = known in the literature; cited from earlier work
[6] = dose .01 mg on cotton wick, N = 25
[7] = Week 1, 10 mg dose, released sterile flies
[8] = Week 2, 10 mg dose, same lure aged in field
[9] = Week 3, 10 mg dose, same lure aged in field

Compound | Male capture compared with other treatments [1] | Response of wild flies, Mean ± s.e. [1] | Relative attractiveness toward the Mediterranean fruit fly (Mediterranean fruit fly) | Male capture compared with other treatments ([2]; 10 mg) | Mean male fly capture ± s.e. ([2]; dose 1 mg on cotton wick) | Mean male fly capture ± s.e. ([2]; dose 10 mg on cotton wick) | Mean male fly capture ± s.e. [2, 6] | Mean male fly capture ± s.e. ([2]; dose .1 mg on cotton wick) | Male fly capture, mean ± SEM [3, 7] | Male fly capture, mean ± SEM [3, 8] | Male fly capture, mean ± SEM [3, 9] | Male capture compared with other treatments ([3]; after one week) | other results
CCOC(=O)[C@H]1C[C@@H](I)CC[C@@H]1C (racemic) [B1 Racemic, Ethyl(1SR,2SR,5SR)-5-iodo-2-methylcyclohexane-1-carboxylate] | significantly higher captures than the B1 (1S,2S,5S) and commercial ceralure | 70.8 ± 10 b | most active | captured significantly more male medflies than B1 (1S,2S,5S), commercial trimedlure, commercial ceralure and (acetone) control | 376.8 ± 36.7 a | 365.53 ± 33.7 b | 111 ± 12.2 a | 179.67 ± 33.5 b | 274.5 ± 21.8 a | 79.6 ± 33.3 a | 4.7 ± 3.7 a | captured significantly more males than B1 (1S,2S,5S), commercial trimedlure, commercial ceralure and control | Mean male fly capture ± s.e. ([2]; dose .01 mg on cotton wick, N = 25, listed as B1 racemic): 111; Male capture compared with other treatments ([3]; after two weeks): captured significantly more males than any other compound
C[C@H]1C[C@H](Cl)CC[C@@H]1C(=O)OC(C)(C)C (relative stereo) [(1S, 2S, 4R), 1,1-dimethylethyl-cis-4-chloro-trans-2-methylcyclohexane-1-carboxylate] |  |  | most attractive |  |  |  |  |  |  |  |  |  | 
CCOC(=O)[C@@H]1C[C@H](I)CC[C@H]1C [B1 1R,2R,5R, Ethyl (1R,2R,5R)-5-iodo-2-methylcyclohexane-1-carboxylate] | captured significantly more males than the B1 racemic mixture | 104.2 ± 13.7 a |  | captured significantly more male medflies than B1 (1S,2S,5S), commercial trimedlure, commercial ceralure and (acetone) control | 473.07 ± 56.6 a | 487.27 ± 33 a | 117 ± 14.1 a | 303.07 ± 34.5 a | 338.9 ± 40.1 a | 69.3 ± 24.9 ab | .3 ± .3 a | captured significantly more males than B1 (1S,2S,5S), commercial trimedlure, commercial ceralure and control | Male capture compared with other treatments [4]: captured the most male medflies but not significantly more than the B1 racemic mixture and commercial trimedlure; Male capture compared with other treatments ([4]; listed as B1 (1R,2R,5R) enantiomer): caught more wild flies after two days than the TML plug; Flies captured as share of the TML plug baited trap ([4]; after an additional 5 days, 10 mg versus 2 g TML plug): approximately 33%; Dose compared to trimedlure to achieve the same trap capture ([2]; 0.01 mg versus trimedlure 10 mg, mean values from Table 1): 1000 times less; Male capture compared with B1 racemic mixture ([2]; 10 mg, 1 mg and 0.1 mg doses): captured significantly more males than the B1 racemic mixture; Mean male fly capture ± s.e. ([2]; dose .01 mg on cotton wick, N = 25, listed as 1R,2R,5R enantiomer): 117; Activity relative to trimedlure at similar doses ([2]; male capture compared to trimedlure, similar doses): 7-10 times
CCOC(=O)[C@H]1C[C@@H](I)CC[C@@H]1C [B1 1S,2S,5S, Ethyl(1S, 2S, 5S)-5-iodo-2-methylcyclohexane-1-carboxylate] |  | 40.5 ± 8.3 c |  |  | 173 ± 42.2 b | 151.80 ± 25.3 c | 38.3 ± 6.5 b | 57.20 ± 8.3 c | 135.7 ± 33.4 b | 5.5 ± 4.5 b | 0 ± 0 a |  | 
CC1CC(Cl)CCC1C(=O)OC(C)(C)C (stereo not drawn) [TML-C, 1,1-dimethylethyl-cis-4-chloro-trans-2-methylcyclohexane-1-carboxylate] |  |  | most active |  |  |  |  |  |  |  |  |  | 
ethyl 4 (and 5)-iodo-2-methylcyclohexane-1-carboxylate [Com. Ceralure, reference compound] |  | 31.8 ± 4.4 c | more persistent and potent attractant than TML |  | 65.07 ± 9.5 bc | 170.47 ± 33.1 c | 23.4 ± 6.3 bc | 11.27 ± 4.1 c | 135 ± 16.8 b | 3.1 ± 2.2 b | .47 ± .27 a |  | Volatility compared with trimedlure [5]: less volatile than trimedlure
